Measurements as given in patent US20210300940A1 (Merck Patent GmbH, priority 2018, published 2021).

What was measured:
TLR7 = molecular target: T1, TLR7 (Homo sapiens, UniProt Q9NYK1); assay: HEK/293 TLR7 Cell Assay; assay type: cell-based; details: TLR7/NFKb HEK cells, R848 agonist 10 uM final concentration, Steady-Glo readout; read-out: TLR7 potency
T1 construct: expressed in transfected cells; host or cells: HEK/293 cells carrying TLR7 and an NF-kB luciferase reporter
T1 sequence (Q9NYK1 27-1049): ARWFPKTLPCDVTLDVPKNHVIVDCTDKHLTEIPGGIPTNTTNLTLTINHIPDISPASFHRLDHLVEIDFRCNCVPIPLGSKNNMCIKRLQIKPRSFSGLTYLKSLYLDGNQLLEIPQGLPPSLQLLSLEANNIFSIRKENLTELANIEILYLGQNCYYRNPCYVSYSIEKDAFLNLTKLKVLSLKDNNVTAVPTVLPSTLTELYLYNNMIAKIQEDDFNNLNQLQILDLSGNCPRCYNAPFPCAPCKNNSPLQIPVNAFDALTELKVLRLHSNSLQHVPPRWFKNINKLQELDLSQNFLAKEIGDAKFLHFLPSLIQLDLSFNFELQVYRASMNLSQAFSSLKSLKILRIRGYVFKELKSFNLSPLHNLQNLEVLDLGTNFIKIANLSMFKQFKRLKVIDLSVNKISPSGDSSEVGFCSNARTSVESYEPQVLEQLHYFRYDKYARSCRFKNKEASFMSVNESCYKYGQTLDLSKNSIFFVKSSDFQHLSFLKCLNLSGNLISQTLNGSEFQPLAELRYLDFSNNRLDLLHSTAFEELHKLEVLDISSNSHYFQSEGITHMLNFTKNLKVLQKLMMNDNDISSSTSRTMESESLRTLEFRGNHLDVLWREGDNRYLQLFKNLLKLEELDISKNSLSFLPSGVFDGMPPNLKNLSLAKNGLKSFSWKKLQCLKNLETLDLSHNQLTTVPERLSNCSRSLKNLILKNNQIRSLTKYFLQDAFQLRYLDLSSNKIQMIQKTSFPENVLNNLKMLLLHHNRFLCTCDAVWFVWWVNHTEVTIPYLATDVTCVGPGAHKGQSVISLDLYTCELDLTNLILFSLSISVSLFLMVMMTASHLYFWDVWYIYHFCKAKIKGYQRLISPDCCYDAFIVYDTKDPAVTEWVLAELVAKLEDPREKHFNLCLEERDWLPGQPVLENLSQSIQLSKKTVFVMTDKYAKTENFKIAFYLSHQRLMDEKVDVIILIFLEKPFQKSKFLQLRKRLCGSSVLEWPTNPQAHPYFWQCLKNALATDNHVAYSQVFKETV
How it was run: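 Compounds added to HEK cells expressing TLR7 with an NFκB reporter 30 min ahead of 10 uM R848 challenge; luciferase signal (Steady-Glo) measured after 5 h, cells having been seeded 24 h earlier at 5000 per well.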

TLR8 = molecular target: T2, TLR8 (Homo sapiens, UniProt Q9NR97); assay: HEK/293 TLR8 Cell Assay; assay type: cell-based; details: HEK cells, R848 agonist 30 uM final concentration, Steady-Glo readout; read-out: TLR8 potency
T2 construct: expressed in transfected cells; host or cells: HEK/293 reporter cells (NF-kB luciferase)
T2 sequence (Q9NR97 27-1041): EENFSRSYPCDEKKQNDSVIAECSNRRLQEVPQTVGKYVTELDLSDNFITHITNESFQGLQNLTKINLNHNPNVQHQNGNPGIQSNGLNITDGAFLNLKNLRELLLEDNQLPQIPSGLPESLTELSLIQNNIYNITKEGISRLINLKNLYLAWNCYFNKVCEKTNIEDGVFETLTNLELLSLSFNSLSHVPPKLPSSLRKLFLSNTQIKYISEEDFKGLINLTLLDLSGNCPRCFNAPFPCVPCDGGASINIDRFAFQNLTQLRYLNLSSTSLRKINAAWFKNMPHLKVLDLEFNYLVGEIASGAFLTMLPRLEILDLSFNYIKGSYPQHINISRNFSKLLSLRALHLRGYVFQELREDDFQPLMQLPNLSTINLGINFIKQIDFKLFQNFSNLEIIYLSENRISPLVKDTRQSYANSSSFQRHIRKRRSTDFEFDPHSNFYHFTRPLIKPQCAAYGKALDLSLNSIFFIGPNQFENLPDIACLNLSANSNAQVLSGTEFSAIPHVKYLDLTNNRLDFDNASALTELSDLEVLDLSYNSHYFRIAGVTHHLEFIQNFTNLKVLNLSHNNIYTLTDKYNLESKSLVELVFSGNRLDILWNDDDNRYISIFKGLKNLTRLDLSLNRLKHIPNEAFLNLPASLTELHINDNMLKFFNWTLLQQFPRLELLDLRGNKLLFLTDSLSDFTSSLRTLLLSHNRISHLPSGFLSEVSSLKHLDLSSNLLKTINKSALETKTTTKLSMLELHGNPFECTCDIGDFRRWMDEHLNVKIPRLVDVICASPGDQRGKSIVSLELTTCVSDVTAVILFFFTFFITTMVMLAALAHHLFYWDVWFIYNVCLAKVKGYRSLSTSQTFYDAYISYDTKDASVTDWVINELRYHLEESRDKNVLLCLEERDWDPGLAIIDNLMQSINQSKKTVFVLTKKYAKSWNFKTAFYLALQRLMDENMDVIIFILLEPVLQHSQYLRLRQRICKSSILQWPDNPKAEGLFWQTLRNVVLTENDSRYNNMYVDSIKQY

SMILES | IC50 (TLR7) [nM] | IC50 (TLR8) [nM]
C[C@H]1C[C@@H](NCCC(=O)NC2CS(=O)(=O)C2)CN(c2ccc(C(F)(F)F)c3ncccc23)C1 [Example 54, N-(1,1-Dioxo-1lambda6-thietan-3-yl)-3-[(3R,5S)-5-methyl-1-(8-trifluoromethyl-quinolin-5-yl)-piperidin-3-ylamino]-propionamide] | < 75 | < 75
N#Cc1ccc(N2C[C@@H](C(=O)NC[C@]3(F)CCNC3)O[C@@H](C(F)(F)F)C2)c2cccnc12 (single isomer, unassigned) [Example 313] | < 75 | < 75
CC(C(=O)N[C@@H]1C[C@H](C)CN(c2cnc(C#N)c3nccnc23)C1)N1CCN(C)CC1 (stereo partly drawn) [Example 190, N-[(3R,5S)-1-(5-Cyano-pyrido[3,4-b]pyrazin-8-yl)-5-methyl-piperidin-3-yl]-2-(4-methyl-piperazin-1-yl)-propionamide] | 75 to 150 | < 75
N#Cc1ccc(N2C[C@H](NC(=O)CC3(F)CCNCC3)C[C@H](C(F)(F)F)C2)c2nccnc12 [Example 118, N-[(3R,5S)-1-(8-cyanoquinoxalin-5-yl)-5-(trifluoromethyl)piperidin-3-yl]-2-(4-fluoropiperidin-4-yl)acetamide] | < 75 | < 75
CC(=O)NCCN[C@@H]1C[C@H](C)CN(c2ccc(C(F)(F)F)c3nccnc23)C1 [Example 25, N-{2-[(3R,5S)-5-Methyl-1-(8-trifluoromethyl-quinoxalin-5-yl)-piperidin-3-ylamino]-ethyl}-acetamide formic acid] | < 75 | < 75
C[C@@H]1CN(c2ccc(C#N)c3nccnc23)C[C@H](C(=O)NCC2(F)CNC2)O1 [Example 293, (2R,6R)-4-(8-Cyano-quinoxalin-5-yl)-6-methyl-morpholine-2-carboxylic acid (3-fluoro-azetidin-3-ylmethyl)-amide] | < 75 | < 75
C[C@H]1C[C@@H](NS(=O)(=O)NC(=O)CN2CCOCC2)CN(c2ccc(C(F)(F)F)c3ncccc23)C1 [Example 203, N-{[(3R,5S)-5-methyl-1-[8-(trifluoromethyl)quinolin-5-yl]piperidin-3-yl]sulfamoyl}-2-(morpholin-4-yl)acetamide] | 75 to 150 | < 75
C[C@@H]1CN(c2ccc(C#N)c3nccnc23)C[C@H](c2nc(C3CC3)no2)O1 (racemic) [Example 214, 8-[(2R,6R)-2-(3-Cyclopropyl-[1,2,4]oxadiazol-5-yl)-6-methyl-morpholin-4-yl]-quinoxaline-5-carbonitrile] | 75 to 150 | < 75
C[C@@H]1CN(c2ccc(C#N)c3nccnc23)C[C@H](C(=O)NC[C@@H]2COCCN2C)O1 (single isomer, unassigned) [Example 264] | < 75 | < 75
C[C@@H]1CN(c2ccc(C#N)c3nccnc23)C[C@H](C(=O)NC[C@H]2CN(C)CCO2)O1 (single isomer, unassigned) [Example 324] | < 75 | < 75
C[C@H]1C[C@@H](NC(=O)CC2(F)CCN(C)CC2)CN(c2ccc(C#N)c3nccnc23)C1 [Example 192, N-[(3R,5S)-1-(8-Cyano-quinoxalin-5-yl)-5-methyl-piperidin-3-yl]-2-(4-fluoro-1-methyl-piperidin-4-yl)-acetamide] | < 75 | < 75
C[C@@H]1CN(c2cnc(C#N)c3ncccc23)C[C@H](C(=O)NCC(O)C(F)(F)F)O1 (stereo partly drawn) [Example 269, (2R,6R)-4-(8-Cyano-[1,7]naphthyridin-5-yl)-6-methyl-morpholine-2-carboxylic acid (3,3,3-trifluoro-2-hydroxy-propyl)-amide] | > 150 | > 150
C[C@@H]1CN(c2ccc(C#N)c3ncncc23)C[C@H](C(=O)NC[C@H]2CN(C)CCO2)O1 [Example 267, (2R,6R)-4-(8-Cyano-quinazolin-5-yl)-6-methyl-morpholine-2-carboxylic acid ((S)-4-methyl-morpholin-2-ylmethyl)-amide] | < 75 | < 75
CN1CCN(CC(=O)N[C@@H]2C[C@H](C(F)(F)F)CN(c3ccc(C#N)c4ncccc34)C2)CC1 [Example 82, N-((3R,5S)-1-(8-cyanoquinolin-5-yl)-5-(trifluoromethyl)piperidin-3-yl)-2-(4-methylpiperazin-1-yl)acetamide] | 75 to 150 | < 75
O=C(CC1(F)CCNCC1)N[C@@H]1C[C@H](C(F)(F)F)CN(c2ccc(C(F)(F)F)c3ncccc23)C1 [Example 117, 2-(4-fluoropiperidin-4-yl)-N-[(3R,5S)-5-(trifluoromethyl)-1-[8-(trifluoromethyl)quinolin-5-yl]piperidin-3-yl]acetamide] | < 75 | < 75
C[C@@H]1CN(c2ccc(C#N)c3nccnc23)C[C@H](CNC(=O)[C@H](C)O)O1 (single isomer, unassigned) [Example 341] | > 150 | < 75
C[C@H]1C[C@@H](NCCC2CS(=O)(=O)C2)CN(c2ccc(C#N)c3nccnc23)C1 [Example 43, 8-{(3R,5S)-3-[2-(1,1-Dioxo-1lambda6-thietan-3-yl)-ethylamino]-5-methyl-piperidin-1-yl}-quinoxaline-5-carbonitrile] | < 75 | < 75
CCN(CC)CCO[C@@H]1C[C@H](C)CN(c2ccc(C#N)c3nccnc23)C1 [Example 6, 8-[(3R,5S)-3-[2-(diethylamino)ethoxy]-5-methylpiperidin-1-yl]quinoxaline-5-carbonitrile] | < 75 | < 75
C[C@@H]1CN(c2ccc(C#N)c3nccnc23)C[C@H](C(=O)NC2CCNC3(CCC3)C2)O1 (stereo partly drawn) [Example 291, (2R,6R)-4-(8-Cyano-quinoxalin-5-yl)-6-methyl-morpholine-2-carboxylic acid (5-aza-spiro[3.5]non-8-yl)-amide] | < 75 | < 75
C[C@@H]1CN(c2ccc(C#N)c3nccnc23)C[C@H](C(=O)NC2CCN(CC(F)(F)F)CC2)O1 [Example 247, (2R,6R)-4-(8-Cyano-quinoxalin-5-yl)-6-methyl-morpholine-2-carboxylic acid [1-(2,2,2-trifluoro-ethyl)-piperidin-4-yl]-amide] | < 75 | < 75
N#Cc1ccc(N2C[C@H](NCCNC(N)=O)C[C@H](C(F)(F)F)C2)c2cccnc12 [Example 40, {2-[(3R,5S)-1-(8-Cyano-quinolin-5-yl)-5-trifluoromethyl-piperidin-3-ylamino]-ethyl}-urea] | > 150 | 75 to 150
